Results taken from BindingDB's records for doi:10.1007/s10822-022-00478-x (Roche Innovation Center Basel, F. Hoffmann-La Roche Ltd., 2022).

Molecular target: cAMP and cAMP-inhibited cGMP 3',5'-cyclic phosphodiesterase 10A (Homo sapiens, UniProt Q9Y233)
Assay: PDE10A assay
Method in brief: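 Scintillation proximity readout of [3H]cGMP hydrolysis (50 nM final substrate, 15 min) by 2 ng/well human PDE10A after 15 min compound preincubation at RT, pH 7.5 with MgCl2. Four-parameter logistic fit gave IC50, reported as pIC50.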

Structure (SMILES)	IC50 [nM]
O=C(c1nc(C2CC2)cnc1Nc1cncnc1)N1CCN(C2CCCCC2)CC1 [Roche-Dataset for PDE10A, Compound 1040]	10000
O=C(NC1CCCC1)c1nc(C2CC2)cnc1Nc1cncnc1 [Roche-Dataset for PDE10A, Compound 1041]	965
CC(C)c1cc(NC(=O)c2c(C(=O)N3CCC3)cnn2C)n(C2CCCC2)n1 [Roche-Dataset for PDE10A, Compound 1042]	854
Cn1ncc(C(=O)N2CCC2)c1C(=O)Nc1ccn(-c2ccccc2F)n1 [Roche-Dataset for PDE10A, Compound 1043]	396
O=C(c1nc(C2CC2)cnc1Nc1cncnc1)N1CCC(O)(Cc2ccccc2)CC1 [Roche-Dataset for PDE10A, Compound 1044]	10000
O=C(NC1CCN(c2ccccn2)CC1)c1nc(C2CC2)ccc1Nc1cncnc1 [Roche-Dataset for PDE10A, Compound 1045]	197
Cc1cc(NC(=O)c2c(C(=O)N3CCC3)cnn2C)n(C2CCCC2)n1 [Roche-Dataset for PDE10A, Compound 1046]	649
COc1ccc2c(=O)n(C)c3cnc(-c4ccccc4Cl)n3c2c1 [Roche-Dataset for PDE10A, Compound 1048]	432
Cc1cc(NC(=O)c2c(C(=O)N3CCC3)cnn2C)nn1CC(F)F [Roche-Dataset for PDE10A, Compound 1050]	136
Cn1ncc(C(=O)N2CCC2)c1C(=O)Nc1ccn(-c2cc(Cl)cc(Cl)c2)n1 [Roche-Dataset for PDE10A, Compound 1051]	43
O=C(N[C@H]1CCN(c2ccccn2)C1)c1nc(C2CC2)ccc1Nc1cncnc1 [Roche-Dataset for PDE10A, Compound 1052]	367
CNC(=O)c1c(NC(=O)c2nc(C3CC3)ccc2Nc2cncnc2)cnn1C [Roche-Dataset for PDE10A, Compound 1053]	14
COc1ccc(NC(=O)c2nc(C3CC3)cnc2Nc2cncnc2)nn1 [Roche-Dataset for PDE10A, Compound 1054]	1480
CC(C)Cn1ccc(NC(=O)c2c(C(=O)N3CCC3)cnn2C)n1 [Roche-Dataset for PDE10A, Compound 1055]	258
CCn1ncc(NC(=O)c2c(C(=O)N3CCC3)cnn2C)c1C(=O)NCC(C)C [Roche-Dataset for PDE10A, Compound 1057]	594
O=C(NC1CCOCC1)c1nc(C2CC2)cnc1Nc1cncnc1 [Roche-Dataset for PDE10A, Compound 1059]	1790
CS(=O)(=O)CCNC(=O)c1nc(C2CC2)cnc1Nc1cncnc1 [Roche-Dataset for PDE10A, Compound 1061]	1630
CN(C(=O)c1c(C(=O)N2CCC2)cnn1C)c1ccn2nc(-c3ccccc3)nc2c1 [Roche-Dataset for PDE10A, Compound 1062]	1450
Cc1cc(NC(=O)c2c(C(=O)N3CCC3)cnn2C)nn1C1CCCC1 [Roche-Dataset for PDE10A, Compound 1063]	437
Cn1ncc(C(=O)N2CCC2)c1C(=O)Nc1ccn(C2CCCCC2)n1 [Roche-Dataset for PDE10A, Compound 1064]	242
Cc1ncc(C)n2nc(/C=C/c3nc(N4C[C@@H]5C[C@H]6CN(C(=O)OC(C)(C)C)C[C@]65C4)nn3C)nc12 [Roche-Dataset for PDE10A, Compound 1066]	6130
COCCn1ccc(NC(=O)c2c(C(=O)N3CCC3)cnn2C)n1 [Roche-Dataset for PDE10A, Compound 1067]	327
Cc1cc(NC(=O)c2c(C(=O)N3CCC3)cnn2C)cc(NC(=O)OC(C)(C)C)n1 [Roche-Dataset for PDE10A, Compound 1068]	207
CC(C)CNC(=O)c1c(NC(=O)c2c(C(=O)N3CCC3)cnn2C)cnn1C [Roche-Dataset for PDE10A, Compound 1069]	462

Structure (SMILES)	IC50 [nM]
CC(C)c1cc(NC(=O)c2c(C(=O)N3CCC3)cnn2C)[nH]n1 [Roche-Dataset for PDE10A, Compound 1070]	10000
CS(=O)(=O)c1ccccc1NC(=O)c1nc(C2CC2)ccc1Nc1cncnc1 [Roche-Dataset for PDE10A, Compound 1071]	27
CS(=O)(=O)N1CCC(NC(=O)c2nc(C3CC3)cnc2Nc2cncnc2)CC1 [Roche-Dataset for PDE10A, Compound 1072]	2860
Cc1cc(C)n2nc(CCc3nc4c(Cl)cc(Cl)c(C)n4n3)nc2n1 [Roche-Dataset for PDE10A, Compound 1073]	276
O=C(NC1(c2ccc(Cl)cc2)CCC1)c1nc(C2CC2)cnc1Nc1cncnc1 [Roche-Dataset for PDE10A, Compound 1074]	863
Cn1ncc(C(=O)N2CCC2)c1C(=O)Nc1ccn(CC2CC2)n1 [Roche-Dataset for PDE10A, Compound 1075]	329
CCNC(=O)c1c(NC(=O)c2c(C(=O)N3CCC3)cnn2C)cnn1CC [Roche-Dataset for PDE10A, Compound 1076]	1920
Cc1cc(NC(=O)c2c(C(=O)N3CCC3)cnn2C)cc(N)n1 [Roche-Dataset for PDE10A, Compound 1077]	131
Cn1ncc(C(=O)N2CCC2)c1C(=O)Nc1cc(C2CCC2)n[nH]1 [Roche-Dataset for PDE10A, Compound 1078]	10000
Cn1ncc(C(=O)N2CCC2)c1C(=O)Nc1ccn(CCF)n1 [Roche-Dataset for PDE10A, Compound 1082]	551
O=C(Nc1ccnnc1)c1nc(C2CC2)cnc1Nc1cncnc1 [Roche-Dataset for PDE10A, Compound 1083]	288
CC(=O)Nc1cccc(NC(=O)c2nc(C3CC3)cnc2Nc2cncnc2)n1 [Roche-Dataset for PDE10A, Compound 1084]	25
O=C(NCc1ncco1)c1nc(C2CC2)cnc1Nc1cncnc1 [Roche-Dataset for PDE10A, Compound 1086]	1030
Cn1ncc(C(=O)N2CCC2)c1C(=O)Nc1cc(C2CCC2)n(C2CCCC2)n1 [Roche-Dataset for PDE10A, Compound 1088]	853
O=C(NCc1cocn1)c1nc(C2CC2)cnc1Nc1cncnc1 [Roche-Dataset for PDE10A, Compound 1089]	1860
O=C(Nc1cnc(Cl)cn1)c1nc(C2CC2)ccc1Nc1cncnc1 [Roche-Dataset for PDE10A, Compound 1090]	146
CC1(CNC(=O)c2nc(C3CC3)cnc2Nc2cncnc2)COC1 [Roche-Dataset for PDE10A, Compound 1092]	2980
Cn1ncc(C(=O)N2CCC2)c1C(=O)Nc1ccn(C2CCC2)n1 [Roche-Dataset for PDE10A, Compound 1093]	496
Cn1ncc(C(=O)N2CCC2)c1C(=O)Nc1ccn(-c2ccccn2)n1 [Roche-Dataset for PDE10A, Compound 1095]	785
O=C(c1nc(C2CC2)cnc1Nc1cncnc1)N1CCC(N2CCOCC2)CC1 [Roche-Dataset for PDE10A, Compound 1098]	10000
CNC(=O)c1c(NC(=O)c2nc(C)c(C)nc2Nc2cncnc2)cnn1C [Roche-Dataset for PDE10A, Compound 1099]	7810
Cn1ncc(C(=O)N2CCC2)c1C(=O)Nc1ccn(C(F)F)n1 [Roche-Dataset for PDE10A, Compound 1100]	761
Cn1ncc(C(=O)N2CCC2)c1C(=O)Nc1cc(C2CCCCC2)n(C2CCCC2)n1 [Roche-Dataset for PDE10A, Compound 1101]	783
